Experimental data: patent publication US20040053345A1, “Marker for probing the therapeutic efficacy of drugs” (priority 2002, published 2004)
“Also recorded” adds a separate entry of the source.

Key:
[1] = tested on: estrogen receptor (ER) transcription activity; assay: Reporter gene assay with ERE-Luc in menin-transfected cells in the presence of tamoxifen; assay type: cell-based, human; settings: MCF-7 cells co-transfected with menin expression vector and ERE-Luc; 1 μM tamoxifen; 24 hours
Experimental: The cells were cultured in DMEM (ICN) medium to which 10% fetal calf serum (ICN) was supplemented.
Full-length menin cDNA was amplified by RT-PCR, and inserted into an expression vector, pcDNA3 (Invitrogen). The menin cDNA was identified by sequencing. The mutation (569delC) was introduced with a site-directed mutagenesis kit (Promega) to produce a variant menin.
The menin expression vector and the reporter gene (ERE-Luc) were co-transfected into MCF-7 cells according to the liposome method. Similarly, the menin expression vector, CMV-ERA and the reporter gene (ERE-Luc) were co-transfected. into COS-7 cells according to the liposome method. After culturing for 24 hours, the proteins were extracted from cells and assayed for their luciferase activity. The extracted proteins were measured for their protein concentration and β-galactosidase activity wherein β-galactosidase was co-transfected and the introduction efficiency was calibrated. Similar experiments were carried out with addition of 1 μM tamoxifen to the same system.

breast cancer [2] = assay: Menin expression in breast cancer tissues (immunohistological staining) versus recurrence under tamoxifen; assay type: in vivo, human
Experimental: Thin slices (4 μm) were prepared from breast cancer tissues embedded with paraffin. After removing paraffin, the microwave treatment was carried out (5 min×3) in citrate buffer. After cooling at room temperature, the endogenous peroxidase activity was inhibited using an aqueous 0.3% hydrogen peroxide solution. Next, blocking was performed with 6 drops of 5% bovine albumin (Sigma) for one hour, and then the anti-menin antibody (Santa Cruz) (first antibody capable of immunohistological staining) was reacted overnight (8 hours). After washing, the second antibody and 6 drops of Envision+ (Dako) wherein HRP was conjugated with polymers were reacted for one hour.
After 100 mg of a coloring agent, DAB (Dojindo), was thoroughly mixed in 150 ml of PBS, the slice was immersed in a solution containing 75 μl of 30% hydrogen peroxide (0.5 μl/ml) for 1 min, and immediately immersed into and washed with tap water. After the dehydration treatment, the slice was enclosed with a cover glass, and observed by a microscopy. The specimen where menin-positive cells with brown-colored nuclei were 50% or more of total cells was determined to be menin-positive.

breast cancer [3] = settings: ER-positive patients, tamoxifen administered for 5 years; cited from earlier work

Compound: CC/C(=C(\c1ccccc1)c1ccc(OCCN(C)C)cc1)c1ccccc1 [tamoxifen]
- inhibition of luciferase activity (ER transcription activity) [1]: not inhibited; also recorded: no suppressive effect
- cancer recurrence (breast cancer [2]; 5 menin-positive cases, tamoxifen administered in 3 cases): 4 cases
- cancer recurrence (breast cancer [2]; menin-negative patient cases (3 of 10) administered tamoxifen): no recurrence
- recurrence rate relative to that in non-administered patients (breast cancer [3]): 50%
